Some test systems named below: UACC-257 melanoma; EKVX NSCLC; SR leukemia; UO-31 renal; SK-MEL-5 melanoma; A549 NSCLC; SF-295 CNS; OVCAR-4 ovarian; NCI-H460 lung; KM12 colon; SK-MEL-28 melanoma; IGROV1 ovarian; HT29 colon; HS 578T breast; COLO 205 colon; A498 renal; LOX IMVI melanoma; M14 melanoma; K-562 leukemia.
Holding throughout (test): NCI anticancer screen, dose series, 48 h

Each structure is given as a SMILES string.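 These data come from cells grown in 96-well plates and exposed to compound for 48 hours at five concentrations. The concentration for full growth arrest is given as TGI.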 Where only a bound is given, the exact number is not on record here.

For `COC(=O)CCC1=NCC(C)(C)O1`, the TGI in the assay on UACC-257 melanoma, in the assay with EKVX NSCLC, with SR leukemia, in the assay on UO-31 renal, with SK-MEL-5 melanoma and with A549 NSCLC was more than 10 µM in each case. For the same molecule, the TGI in the assay with SF-295 CNS, with OVCAR-4 ovarian, in the assay on NCI-H460 lung, with KM12 colon, with SK-MEL-28 melanoma and with IGROV1 ovarian was more than 10 µM each time. Also, the TGI in the assay with HT29 colon, with HS 578T breast, in the assay with COLO 205 colon, in the assay with A498 renal, in the assay with LOX IMVI melanoma and with M14 melanoma was more than 10 µM throughout.

As to `CCOC(=O)/C(=C\NC(C)(C)C)c1nc2ccccc2[nH]1`, the TGI was 35.2 µM with UACC-257 melanoma; 34.5 µM with EKVX NSCLC; 28.3 µM in the assay on SR leukemia; 41.3 µM with UO-31 renal; 25.5 µM in the assay with SK-MEL-5 melanoma; more than 100 µM in the assay with A549 NSCLC. In addition, the TGI in the assay with SF-295 CNS came out at 41.2 µM; in the assay with OVCAR-4 ovarian it was 59.6 µM; with NCI-H460 lung, 37.3 µM; with KM12 colon, 44.1 µM; in the assay on SK-MEL-28 melanoma, 34.6 µM; in the assay with IGROV1 ovarian, 69.4 µM. For the same molecule, the TGI with HT29 colon worked out at 42.6 µM; with HS 578T breast, 45.8 µM; in the assay with COLO 205 colon it was 33.7 µM; in the assay on A498 renal, 57.3 µM; in the assay on LOX IMVI melanoma, 44.6 µM; with M14 melanoma, 39.7 µM.

On to `O=C(O)Cc1ccc(Nc2nc3ccccc3nc2C(=O)O)cc1`, for which the TGI in the assay with UACC-257 melanoma, with EKVX NSCLC, in the assay on SR leukemia, in the assay on UO-31 renal, in the assay on SK-MEL-5 melanoma and with A549 NSCLC was more than 100 µM throughout. The TGI with SF-295 CNS, in the assay with OVCAR-4 ovarian, in the assay with NCI-H460 lung, in the assay with KM12 colon, in the assay with SK-MEL-28 melanoma and in the assay on IGROV1 ovarian was more than 100 µM in each case. For the same molecule, the TGI with HT29 colon, with HS 578T breast, with COLO 205 colon, in the assay on A498 renal, in the assay on LOX IMVI melanoma and in the assay on M14 melanoma was more than 100 µM throughout.

With `N#Cc1c(C#N)c(-c2ccccc2)n(Cc2ccccc2)c1N`, the TGI in the assay with UACC-257 melanoma, with EKVX NSCLC, with SR leukemia, with UO-31 renal, in the assay on SK-MEL-5 melanoma and with A549 NSCLC was more than 100 µM throughout. Also, the TGI in the assay on SF-295 CNS, in the assay with OVCAR-4 ovarian, in the assay on KM12 colon, with IGROV1 ovarian, in the assay with HT29 colon and in the assay on K-562 leukemia was more than 100 µM throughout. The TGI with HS 578T breast, in the assay on COLO 205 colon, with A498 renal, with LOX IMVI melanoma and with M14 melanoma was more than 100 µM throughout.

Consider `O=c1[nH]nc(-c2ccccc2)n1/N=C/c1ccco1`, for which the TGI in the assay with UACC-257 melanoma, in the assay with EKVX NSCLC, in the assay on SR leukemia, in the assay on UO-31 renal, in the assay with SK-MEL-5 melanoma and with A549 NSCLC was more than 100 µM each time. Further, the TGI in the assay with SF-295 CNS, in the assay on OVCAR-4 ovarian, in the assay on NCI-H460 lung, in the assay with KM12 colon, in the assay on SK-MEL-28 melanoma and with IGROV1 ovarian was more than 100 µM throughout. The TGI in the assay on HT29 colon, with HS 578T breast, in the assay on COLO 205 colon, in the assay on A498 renal, with LOX IMVI melanoma and with M14 melanoma was more than 100 µM in each case.

For the molecule `CC(=O)N1c2ccccc2C2=NN(C)C(=N)SC21` (stereo not drawn), the TGI in the assay with UACC-257 melanoma, with EKVX NSCLC, with SR leukemia, with UO-31 renal, in the assay with A549 NSCLC and in the assay on SF-295 CNS was more than 100 µM throughout. Besides, the TGI in the assay with OVCAR-4 ovarian, with NCI-H460 lung, with KM12 colon, with SK-MEL-28 melanoma, in the assay on HT29 colon and in the assay on K-562 leukemia was more than 100 µM throughout. The TGI in the assay on HS 578T breast, in the assay on COLO 205 colon, in the assay on A498 renal, in the assay on LOX IMVI melanoma and in the assay with M14 melanoma was more than 100 µM each time.

For `CCOc1ccccc1NC(=O)C(=O)C(/C(=N/N)C(=O)OC)c1nc2ccc([N+](=O)[O-])cc2[nH]c1=O` (stereo not drawn), the TGI in the assay on UACC-257 melanoma, in the assay with EKVX NSCLC, in the assay on SR leukemia, with SK-MEL-5 melanoma, with A549 NSCLC and in the assay with SF-295 CNS was more than 100 µM throughout. Also, the TGI in the assay with OVCAR-4 ovarian, with NCI-H460 lung, in the assay with KM12 colon, with SK-MEL-28 melanoma, with IGROV1 ovarian and in the assay on HT29 colon was more than 100 µM in each case. Further, the TGI in the assay with K-562 leukemia, in the assay on HS 578T breast, in the assay on A498 renal, in the assay with LOX IMVI melanoma and in the assay on M14 melanoma was more than 100 µM each time.
